One data set relates to A549 cells. In words: Cellular uptake and endo/lysosomal escape (confocal microscopy). The class given is cell-based, human. How it is done: A549 cells (20 × 10^4 per well) were seeded into confocal dishes (SPL Life Sciences) and incubated for adhesion overnight at 37 °C in 5% CO2. 6-FAM-labeled C-DSB or control peptide was diluted to Opti-MEM medium (Gibco) and added to the cells for 24-h incubation. C-DBS was washed with PBS containing 20 U/mL heparin (Sigma-Aldrich) and stained with 40 μM Hoechst 33342 (Life Technologies) and 5 μg/mL Wheat Germ Agglutinin Alexa Fluor 647 Conjugate (Life Technologies) for 20 min. After removing excess dye, cell images were captured by the Leica TCS SP8 Confocal Microscope System. To detect the endo/lysosomal escape of C-DBS, 50 nM Lysotracker Red (Life Technologies) was used to stain the endo/lysosomes. Fluorescence intensity profiles of the region of interest (ROI) were analyzed using ImageJ software.

The next data set deals with HeLa. The experiment in a line: Cell viability assay (MTT). Format: cell-based, human. The following applies: up to 100 μM, 24 h. How it is done:
(§1) Cells (6 × 10^3 per well) were seeded into a 96-well plate. After overnight incubation, cells were treated with different concentrations of C-DBS for 24 h. The viability of the cells was determined using 3-(4,5-dimethylthiazol-2-yl)-2,5-diphenyltetrazolium bromide (MTT) (Roche). Absorption at 570 nm was measured using a microplate reader (BMG, CLARIOstar) according to the manufacturer’s instructions.

In another data set the test system is MDA-MB-231. In words: Cell viability assay (MTT). The class given is cell-based, human. The settings on record: MDA-MB-231, up to 100 μM, 24 h. How it is done:
as §1

Another data set deals with HEK-293. In words: Cell viability assay (MTT). The settings on record: HEK-293, up to 100 μM, 24 h. Format: cell-based, human. How it is done: as §1
In another data set the test system is A549. In words: Cell viability assay (MTT). The class given is cell-based, human. The settings on record: A549, up to 100 μM, 24 h. The method, then: as §1
The next data set has as its target SRPK1ΔNS3. The settings on record: quoted for comparison, earlier work on DBS1; read-out: Kd of DBS1 for SRPK1; cited from earlier work. An excerpt: Because DBS1 targets the docking groove of SRPK, we tested the specificity of C-DBS toward the same binding site. We performed fluorescence polarization (FP) assay to examine the direct noncovalent interaction between C-DBS and SRPK1ΔNS3, as well as the docking groove mutant SRPK1ΔNS3_DM that contains alanine substitutions at four docking groove residues—D548, D564, E571, and K615—that are essential for the binding and phosphorylation of the substrate (Fig. 2a)[11],[12],[36].

Square brackets hold non-standard residues; d marks the D form. Peptide text beside a SMILES is read from it. * marks the point of attachment. Benzoyl(4-SO2F) = O=C(c1ccc(S(=O)(=O)F)cc1)*; Dap = NC[C@H](N)C(=O)O

Data on two compounds can be found in paper PMC11211491, “Design of a covalent protein-protein interaction inhibitor of SRPKs to suppress angiogenesis and invasion of cancer cells” (Communications Chemistry, 2024).

Take `CC(=O)N[C@@H](CCCNC(=N)N)C(=O)N[C@@H](CCC(=O)O)C(=O)N[C@@H](CCCNC(=N)N)C(=O)N[C@@H](C)C(=O)N[C@@H](CCCNC(=N)N)C(=O)N[C@H](C(=O)N[C@@H](CCCNC(=N)N)C(=O)N[C@@H](CCCNC(=N)N)C(=O)N[C@@H](CNC(=O)c1ccc(S(=O)(=O)F)cc1)C(=O)N[C@@H](CCCNC(=N)N)C(=O)N[C@@H](C)C(=O)N[C@@H](CCCNC(=N)N)C(=O)N[C@H](C(=O)N[C@@H](CCCNC(=N)N)C(=O)N[C@@H](CCC(=O)O)C(=O)N[C@@H](CCCNC(=N)N)C(=O)N[C@@H](C)C(=O)N[C@@H](CCCNC(=N)N)C(=O)N[C@H](C(=O)N[C@@H](CCCNC(=N)N)C(N)=O)[C@@H](C)O)[C@@H](C)O)[C@@H](C)O` [C-DBS] (Ac-RERARTRR[Dap](Benzoyl(4-SO2F))RARTRERARTR-NH2): the cellular uptake entry in the data set on A549 cells (A549, 10 μM FAM-labeled peptide, 24 h, Opti-MEM, confocal fluorescence microscopy) is reported as “readily internalized by the A549 cells”. The “endo/lysosomal trapping after internalization” value in the data set on A549 cells (A549, LysoTracker Red, 1.5 or 24 h incubation) was “not trapped in endolysosomal compartments after internalization”. Besides, the “cytotoxicity (MTT)” value with HeLa, with MDA-MB-231, with HEK-293 and in the data set on A549 was “no cytotoxicity” in each case.
As a reminder, the Kd is a measure of binding affinity in units of concentration. On to RERARTRRE^9RARTRERARTR [DBS1], for which the Kd at SRPK1ΔNS3 is 3.2 ± 1.5 µM.
